Assay results published in patent publication US5814638A, “Ophthalmic formulation for treating myopia comprising dopamine agonist and cyclodextrin” (LG Chemical Ltd., priority 1996, dated 1998).

Key:
[1] = in vivo; cited from earlier work
form-deprivation myopia = conditions: daily intravitreal injections; young chickens; cited from earlier work
[2] = Solubility of dopamine agonists in 10 mM citrate buffer (pH 5) at 25° C. with or without HPCD; type: physicochemical
Method: (§1) The stability and solubility of dopamine agonists, i.e., bromocriptine(BCT), apomorphine(APO), pergolide(PER), and lisuride(LIS) were tested as follows.
(§2) For the stability test, solutions each containing 100 μg/ml of the dopamine agonist in 10 mM citrate buffer(pH 5) were incubated at 25° C. for 30 days with or without added 2-hydroxypropyl-β-cyclodextrin(HPCD, average molar substitution=0.8, average molecular weight=1500; 20 wt % based on the solution).
(§3) The amounts of the dopamine agonists in sample solutions of the stability and solubility tests were determined by HPLC method with fluorescence detector.
(§4) Each data point in FIGS. 1A and 1B represents the mean of two determinations and each value in FIG. 2 is the mean±SD(standard deviation) of three determinations. […] The addition of HPCD also bring about marked increases in the solubilities of the dopamine agonists; by a factor of 19 for bromocriptine, and two for apomorphine, pergolide, and lisuride.

[3] = tested on: eye of a young maturing animal; conditions: ocular administration; cited from earlier work
[4] = cited from earlier work; for Stability with sodium acetate: Tris buffer pH 7.4, sodium acetate added; for Stability in Tris buffer: pH 7.4
[5] = Stability of dopamine agonists in 10 mM citrate buffer (pH 5) at 25° C. with or without HPCD; type: physicochemical; conditions: 100 μg/ml, 10 mM citrate buffer pH 5, 25° C., 30 days, with vs without 20 wt % HPCD
Method: as §1, §2, §3, §4

[6] = mucoadhesive polymer, e.g., polycarbophil; cited from earlier work
[7] = in vivo; cited from earlier work; remark: listed apart in the source

2-hydroxypropyl-β-cyclodextrin
Tolerability when administered [1]: innocuous when administered

CN1CCc2cccc3c2[C@H]1Cc1ccc(O)c(O)c1-3 [apomorphine]
Effect on form-deprivation myopia (FDM) (form-deprivation myopia): block form-deprivation myopia
Increase in solubility by addition of HPCD (factor) ([2]; pH 5): two
Inhibition of axial enlargement of the eye [3]: can inhibit, and in some cases completely prevent, the axial enlargement of the eye
Stability with mercaptoethanol ([4]; 0.01% mercaptoethanol): stability of apomorphine is improved
Stability with sodium acetate [4]: greatly enhanced
Stability in Tris buffer [4]: unstable
Stability with antioxidants ([4]; water or plasma, ascorbic acid and sodium bisulfate): can be stabilized by the addition of antioxidants

CC(C)C[C@H]1C(=O)N2CCC[C@H]2[C@]2(O)O[C@](NC(=O)[C@@H]3C=C4c5cccc6[nH]c(Br)c(c56)C[C@H]4N(C)C3)(C(C)C)C(=O)N12 [bromocriptine]
Effect of HPCD on stability [5]: significant increases in the stabilities

CCCC(=O)c1ccccc1 [butyrophenone]
Inhibition of axial enlargement of the eye [3]: can inhibit, and in some cases completely prevent, the axial enlargement of the eye

NCCc1ccc(O)c(O)c1 [dopamine]
Stability with sodium acetate [4]: greatly enhanced
Stability in Tris buffer [4]: unstable

O=C(CCCN1CCC(O)(c2ccc(Cl)cc2)CC1)c1ccc(F)cc1 [haloperidol]
Inhibition of axial enlargement of the eye [3]: can inhibit, and in some cases completely prevent, the axial enlargement of the eye

CCN(CC)C(=O)N[C@H]1C=C2c3cccc4[nH]cc(c34)C[C@H]2N(C)C1 [lisuride]
Effect of HPCD on stability [5]: does not affect the stabilities
Increase in solubility by addition of HPCD (factor) ([2]; 20 mg/ml, 10 mM citrate buffer pH 5, 25° C., 24 hours, 20 wt % HPCD vs none): two

CCCN1C[C@H](CSC)C[C@@H]2c3cccc4[nH]cc(c34)C[C@H]21 [pergolide]
Increase in solubility by addition of HPCD (factor) ([2]; pH 5): two

gentamicin
Penetration via the conjunctival-scleral pathway [6]: facilitated

poly(vinyl alcohol)
Increase in the iris-ciliary body to plasma drug concentration ratio [7]: 52 fold
